Five compounds from BindingDB's records for doi:10.1002/cbic.201402579 (2015) can be followed below.

For the test, the target named is Cyclin-dependent kinase 2 (Homo sapiens, UniProt P24941). Put plainly: Protein Kinase Assay. The note with it: pH 7.5; 30 °C. Here is the method:
We incubated human recombinant CDK2/cyclin A with small molecules at the indicatedconcentrations in buffer A (Tris HCl (25 mm, pH 7.5), MgCl2 (10 mm), EGTA (1 mm), DTT (1 mm), heparin ([…])) containing histone H1 (1 mg/mL), […] and [g-33P]ATP (15 mm, 3,000 Cimmol^-1; 10 mCi/mL) in a […]. After 30 min incubation at 30 C , we stopped the reaction by using a MicroBeta FilterMate-96 Harvester and P81 phosphocellulose papers , which we washed in phosphoric acid (1 %). We added scintillation fluid, and we measured the radioactivity in a counter with microplate robotic stackers. We calculated kinase activity as picomoles of phosphate incorporated during the 30 min incubation. We evaluated percentage kinase activity as the amount compared to that measured in the absence of inhibitors.

The structures appear in SMILES notation.

`CC(=O)OCc1cc(O)c2c(c1)C(=O)c1cccc(O)c1C2=O` [11-O-acetyl-aloe-emodin] registered a dissociation constant (Kd) of 17.8 µM.
As for `NNc1ncnc2sc3c(c12)CCCCC3` [4-hydrazino-6,7,8,9-tetrahydro-5H-cyclohepta[4,5]thieno[2,3-d]pyrimidine (A1)], the figure is 32.5 µM; as for `O=C(O)c1cc(O)c2c(c1)C(=O)c1cccc(O)c1C2=O` [RHEIN], 9.6 µM; as for `NNc1ncnc2sc3c(c12)CCCC3` [4-hydrazino-5,6,7,8-tetrahydro[1]benzothieno[2,3-d]pyrimidine (A)], 28.3 µM.
Next, `NNc1ncnc2sc3c(c12)CCC3` [7,8-dihydro-6H-cyclopenta[4,5]thieno[1,2-c]pyrimidin-1-yldiazane]: 287 µM.

By Kd is commonly meant the free concentration of one partner at which half of the binding sites on the other are occupied at equilibrium, for simple one-to-one binding. Lower therefore signals a tighter complex.
